Test results: patent publication US20200353438A1, “METHOD OF FABRICATING CELL ARRAYS AND USES THEREOF” (StemoniX Inc., priority 2014, published 2020)

System: beating H9 embryonic stem cell derived cardiomyocytes
Test: Drug dosing of beating cardiomyocyte hydrogel array, observed by camera
Type: cell-based
Conditions: 1×16 GelMa array after 3 days incubation, visual camera observation
Protocol: In one example, a Labcyte Echo Model 555 nano liter sonic dispensing system was used to deliver 2 heart drugs, Satolol an Antiarrhythmic drug and Isoproteronol a […], to the fabricated array. The drugs were diluted to 2.25 uM in cell media nutrient solution to prevent dehydration. The Echo 555 liquid handler revolutionizes liquid handling with acoustic energy. Sound waves eject precisely sized droplets from a source onto a microplate, slide or other surface suspended above the source. […] Fluids are transferred in nanoliter increments. Larger volumes are transferred at the rate of hundreds of droplets per second. By using this non contact method it minimizes any contact that could damage or kill the cells as found in other dispensing methods. It also allows for the use of very small quantities thus allowing users to screen molecules that are scarce or difficult to manufacture thus reducing cost. In addition, the X and Y position of the dispensing head can be precisely located over the N×N array location of interest thereby allowing different locations to have a drug of interest administered.
beating H9 embryonic stem cell derived cardiomyocytes were used on day 25 of differentiation. After disassociation a vial with 1 mL of suspension was produced. […] Within those it was determined that 8.38×10^5 live cells were present with tryptan blue. […]

| Structure (SMILES) | effect on refectory period (pause in beating) of irregularly beating heart cells | increase in the heart cells beating (dosing with 10 nM) |
| --- | --- | --- |
| CC(C)NCC(O)c1ccc(O)c(O)c1 (centres unmarked) [Isoproteronol] | removed the refectory period (pause in beating) of some irregularly beating heart cells |  |
| CC(C)NCC(O)c1ccc(NS(C)(=O)=O)cc1 (centres unmarked) [Satolol] |  | 30-40% |
